Laboratory results as given in patent US8669254B2, “Pyridine, pyridazine, pyrimidine or pyrazine carboxamides as HDL-cholesterol raising agents” (Hoffman-La Roche Inc., priority 2010, dated 2014).
Where two headings read alike, the source gives them in different places.

How the values were obtained:
human CB2 receptor = target: T1, human CB2 receptor (Homo sapiens, UniProt P34972); assay: CB2 receptor affinity ([3H]-CP-55,940 displacement); assay type: binding; conditions: HEK cell membranes, radioligand [3H]-CP-55,940
T1 construct: expressed in transfected cells; host or cells: human embryonic kidney (HEK) cells, Semliki Forest Virus system, membrane preparation
Procedure: (§1) The affinity of the compounds of the invention for cannabinoid CB2 receptors was determined using membrane preparations of human embryonic kidney (HEK) cells in which the human CB2 receptor is transiently transfected using a Semliki Forest Virus system in conjunction with [^3H]-CP-55,940 as radioligand. After incubation of freshly prepared cell membrane preparation with the [^3H]-ligand, with or without addition of compounds of the invention, separation of bound and free ligand was performed by filtration over glass fiber filters. Radioactivity on the filter was measured by scintillation counting.
(§2) The ability of the compounds to displace the radioligand [^3H]-CP-55,940 was measured at a concentration of 10 μM and values provided as [% inhibition @ 10 μM] both for the CB 1 and CB2 receptor assay, The lower % inhibition is, the lower the likelihood of side effects based on CB1 or CB2 receptor inhibition is.

ABCA1 protein = assay: Detection of upregulation of ABCA1 protein in cells (ApoA-I binding, high content image analysis); assay type: cell-based; conditions: THP-1 macrophage cells; for EC50: ABCA1 protein detection assay; for % increase of ABCA1 at 3 μM: compound at 3 μM, 24 hrs
Procedure: The ability of compounds of the invention to increase the level of ABCA1 protein is determined in replicate cultures of THP-1 macrophage cells in 96-well microplates. Cells are plated at an initial density of 100,000 cells/well in 100 μl medium and differentiated to adherent macrophages with the addition of PMA (100 nM) for 68 hrs in 10% fetal bovine serum, 3 μl/L of b-mercaptoethanol, RPMI-1640 medium. Then, cells are incubated with RPMI-1640 medium containing 1% FCS, 25 μg/ml acetylated LDL, for 24 hours at 37°. Following incubation with acetylated LDL, cells are washed twice with 50 μl PBS and incubated with 100 μl of RPMI-1640 medium containing the compound of interest solubilized in DMSO for an additional 24 hrs. The final DMSO concentration in presence of cells is maintained at 0.5%. ApoA-I binding assay using High Content Image Analysis is initiated by replacing with fresh medium, RPMI without Phenol Red, 0.2% BSA containing AlexaFluor®647 labeled ApoA-I for 2 h/37° C./5% CO2. Then, cells are fixed with 4% Formaldehyde in PBS (15 min, RT). Following Nuclei are stained with Hoechst solution (3 μM PBS) and Cytoplasm with Cell Mask Blue (2 μg/ml PBS), 15 min, RT. Finally the stained cells are fixed with a second round of formaldehyde treatment. Fixed stained cells are washed and kept in PBS at 4° C. and can be read immediately until one month after preparation.
The Alexa Fluor 647-labeled Apolipoprotein A-I (20 nM) was prepared as follows: Human recombinant Apolipoprotein A-I (ApoA-I) was exchanged to a buffer of 0.02 M NaHCO3 at pH 8.2 on an NAP desalting column (GE Healthcare) and brought to a concentration to 40 μM (1.13 mg/ml) by adjustment with the same buffer. The ApoA-I was fluorescently labeled by incubation with Alexa Fluor carboxylic acid succimidyl ester (Alexa Fluor 647, Invitrogen A-20006) at a 2:1 molar ratio (Alexa to ApoA-I) for 1 h under shaking at RT). The remaining unconjugated label was removed by buffer exchange to 0.02M NaHCO3 at pH 8.2.
Imaging and data collection were performed on an OPERA confocal microplate imaging reader using a 20× water immersion objective and UV360 or 405 laser to identify the cell nuclei and a 635 laser to identify the fluorescent ApoA-I. Eight fields of view are captured per well. Image capture and analysis was performed with the Acapella software. Background fluorescence detected in control wells without ApoA-I was subtracted.
Using XLfit3 program (ID Business Solutions Ltd. UK), the model 205 for Dose Response One Site is used to calculate the EC50 values. […] Particularly, the compounds of the present invention have EC50 values in a range of 0.1 μM to 3 μM.

human CB1 receptor = target: T2, human CB1 receptor (Homo sapiens, UniProt P21554); assay: CB1 receptor affinity ([3H]-CP-55,940 displacement); assay type: binding; conditions: read-out: CB1 receptor affinity [% inhibition @ 10 μM]
T2 construct: expressed in transfected cells; host or cells: human embryonic kidney (HEK) cells, Semliki Forest Virus system, membrane preparation
Procedure: as §1, with “cannabinoid” for “cannabinoid CB2”, “CB1” for “CB2”, “[3H]-CP-55,940” for “[^3H]-CP-55,940”
as §2

[1] = 10 μM, HEK cell membranes, radioligand [3H]-CP-55,940

T2 sequence (P21554 whole entry): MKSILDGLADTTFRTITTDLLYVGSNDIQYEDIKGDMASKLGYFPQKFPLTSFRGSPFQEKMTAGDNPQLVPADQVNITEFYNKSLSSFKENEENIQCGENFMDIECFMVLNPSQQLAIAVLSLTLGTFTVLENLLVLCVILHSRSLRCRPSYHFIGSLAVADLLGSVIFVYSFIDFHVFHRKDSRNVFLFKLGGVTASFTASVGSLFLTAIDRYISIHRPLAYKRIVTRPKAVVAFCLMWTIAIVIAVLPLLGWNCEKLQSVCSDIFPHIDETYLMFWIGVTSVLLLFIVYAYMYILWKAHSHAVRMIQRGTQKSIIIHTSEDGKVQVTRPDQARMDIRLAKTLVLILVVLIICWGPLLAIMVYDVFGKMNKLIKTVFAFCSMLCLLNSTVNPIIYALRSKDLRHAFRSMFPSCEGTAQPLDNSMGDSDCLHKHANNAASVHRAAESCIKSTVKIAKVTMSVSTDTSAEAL
T1 sequence (P34972 whole entry): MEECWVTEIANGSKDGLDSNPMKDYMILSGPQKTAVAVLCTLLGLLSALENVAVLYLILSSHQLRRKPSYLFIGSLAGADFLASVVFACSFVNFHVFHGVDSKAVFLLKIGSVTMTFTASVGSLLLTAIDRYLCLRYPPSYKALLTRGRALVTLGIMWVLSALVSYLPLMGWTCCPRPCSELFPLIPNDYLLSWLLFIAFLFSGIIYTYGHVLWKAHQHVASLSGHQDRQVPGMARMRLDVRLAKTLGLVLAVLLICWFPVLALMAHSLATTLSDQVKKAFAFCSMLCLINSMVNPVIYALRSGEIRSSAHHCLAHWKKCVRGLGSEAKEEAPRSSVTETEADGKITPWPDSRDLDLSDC

| Structure (SMILES) | inhibition at 10 µM (human CB2 receptor) [%] | inhibition at 10 µM (human CB1 receptor; [1]) [%] | EC50 (ABCA1 protein) [nM] | % increase of ABCA1 at 3 μM (ABCA1 protein) [% @ 3 μM] | inhibition at 10 µM (human CB1 receptor) [%] |
| --- | --- | --- | --- | --- | --- |
| CO/N=C1\CCCC[C@@H]1NC(=O)c1cnc(OCC(F)(F)F)c(-c2ccc(Cl)c(Cl)c2)c1 [Example 7, 5-(3,4-Dichloro-phenyl)-N-{(S)-2-[(E)-methoxyimino]-cyclohexyl}-6-(2,2,2-trifluoro-ethoxy)-nicotinamide] | 3.56 |  | 4720 | 84.6 | 10.5 |
| CO/N=C1\CCCC[C@@H]1NC(=O)c1cnc(OCC2CC2)c(-c2ccc(Cl)cc2)c1 [Example 1, 5-(4-Chloro-phenyl)-6-cyclopropylmethoxy-N-{(S)-2-[(E)-methoxyimino]-cyclohexyl}-nicotinamide] | 17.2 |  | 700 | 87.2 | 34 |
| COCO/N=C1\CCCC[C@@H]1NC(=O)c1cnc(OCC2CC2)c(-c2ccc(Cl)cc2)c1 [Example 6, 5-(4-Chloro-phenyl)-6-cyclopropylmethoxy-N-{(S)-2-[(E)-methoxymethoxyimino]-cyclohexyl}-nicotinamide] | 19.2 | 36.7 |  | 71.9 |  |
| CO/N=C1\CCCC[C@@H]1NC(=O)c1cnc(OCC(F)(F)F)c(-c2ccc(Cl)cc2)c1 [Example 2, 5-(4-Chloro-phenyl)-N-{(S)-2-[(E)-methoxyimino]-cyclohexyl}-6-(2,2,2-trifluoro-ethoxy)-nicotinamide] | 3.53 | 30.8 | 1820 | 88.3 |  |
| CO/N=C1\CCCC[C@H]1NC(=O)c1cnc(OCC(F)(F)F)c(-c2ccc(Cl)c(Cl)c2)c1 [Example 8, 5-(3,4-Dichloro-phenyl)-N-{(R)-2-[(E)-methoxyimino]-cyclohexyl}-6-(2,2,2-trifluoro-ethoxy)-nicotinamide] | 13.1 |  | 810 | 63 | 35.2 |
| CO/N=C1\CCCC[C@@H]1NC(=O)c1cc(-c2ccc(Cl)cc2)c(OCC(F)(F)F)nn1 [Example 17, 5-(4-Chloro-phenyl)-6-(2,2,2-trifluoro-ethoxy)-pyridazine-3-carboxylic acid {(S)-2-[(E)-methoxyimino]-cyclohexyl}-amide] | 13.6 | 16.6 | 2630 | 76.5 |  |
| CO/N=C(/CNC(=O)c1cc(-c2ccc(Cl)cc2)c(OCC(F)(F)F)cn1)C1CC1 [Example 32, (E)-4-(4-chlorophenyl)-N-(2-cyclopropyl-2-(methoxyimino)ethyl)-5-(2,2,2-trifluoroethoxy)picolinamide] | 29 | 15 |  | 53 |  |
| CO/N=C1\CCCC[C@@H]1NC(=O)c1cc(-c2ccc(Cl)cc2)c(OCC2CC2)nn1 [Example 18, 5-(4-Chloro-phenyl)-6-cyclopropylmethoxy-pyridazine-3-carboxylic acid {(S)-2-[(E)-methoxyimino]-cyclohexyl}-amide] | 32.5 | 26.9 | 4990 | 57.3 |  |
| CO/N=C(\CNC(=O)c1cnc(OCC(F)(F)F)c(-c2ccc(Cl)cc2)c1)C1CC1 [Example 13, 5-(4-Chloro-phenyl)-N-{2-cyclopropyl-2-[(Z)-methoxyimino]-ethyl}-6-(2,2,2-trifluoro-ethoxy)-nicotinamide] | 1.52 | 48.6 |  | 66.2 |  |
| CO/N=C(/CNC(=O)c1cc(-c2ccc(Cl)cc2)c(O[C@@H](C)C(F)(F)F)nn1)C1CC1 [Example 25, (S,E)-5-(4-Chlorophenyl)-N-(2-cyclopropyl-2-(methoxyimino)ethyl)-6-(1,1,1-trifluoropropan-2-yloxy)pyridazine-3-carboxamide] | 29 | 39 |  | 61 |  |
| CO/N=C1\CCCC[C@H]1NC(=O)c1cc(-c2ccc(Cl)cc2)c(OCC(F)(F)F)nn1 [Example 16, 5-(4-Chloro-phenyl)-6-(2,2,2-trifluoro-ethoxy)-pyridazine-3-carboxylic acid {(R)-2-[(E)-methoxyimino]-cyclohexyl}-amide] | 16.6 | 25.4 | 10000 | 55.3 |  |
| CO/N=C(/CNC(=O)c1ncc(OCC2CC2)c(-c2ccc(Cl)cc2)n1)C1CC1 [Example 20, 4-(4-chloro-phenyl)-5-cyclopropylmethoxy-pyrimidine-2-carboxylic acid {2-cyclopropyl-2-[(E)-methoxyimino]-ethyl}-amide] | 71.7 | 28.8 |  | 87.03 |  |

Continued, in another order:

| inhibition at 10 µM (human CB2 receptor) [%] | inhibition at 10 µM (human CB1 receptor; [1]) [%] | Structure (SMILES) | EC50 (ABCA1 protein) [nM] | % increase of ABCA1 at 3 μM (ABCA1 protein) [% @ 3 μM] | inhibition at 10 µM (human CB1 receptor) [%] |
| --- | --- | --- | --- | --- | --- |
| 47.7 | 26.8 | CO/N=C(/CNC(=O)c1cnc(OCC(F)(F)F)c(-c2ccc(Cl)c(Cl)c2)c1)C1CC1 [Example 12, N-{2-Cyclopropyl-2-[(E)-methoxyimino]-ethyl}-5-(3,4-dichloro-phenyl)-6-(2,2,2-trifluoro-ethoxy)-nicotinamide] |  | 88.4 |  |
| 6.86 | 45.7 | CC(C)O/N=C1\CCCC[C@@H]1NC(=O)c1cnc(OCC2CC2)c(-c2ccc(Cl)cc2)c1 [Example 3, 5-(4-Chloro-phenyl)-6-cyclopropylmethoxy-N-{(S)-2-[(E)-isopropoxyimino]-cyclohexyl}-nicotinamide] |  | 66.4 |  |
| 8.91 | 48.5 | O=C(N[C@H]1CCCC/C1=N\OCC(F)(F)F)c1cnc(OCC2CC2)c(-c2ccc(Cl)cc2)c1 [Example 4, 5-(4-Chloro-phenyl)-6-cyclopropylmethoxy-N-{(S)-2-[(E)-2,2,2-trifluoro-ethoxyimino]-cyclohexyl}-nicotinamide] |  | 90.4 |  |
| 20.9 | 48.2 | CO/N=C(/CNC(=O)c1cnc(OCC(F)(F)F)c(-c2ccc(Cl)cc2)c1)C1CC1 [Example 14, 5-(4-Chloro-phenyl)-N-{2-cyclopropyl-2-[(E)-methoxyimino]-ethyl}-6-(2,2,2-trifluoro-ethoxy)-nicotinamide] |  | 157.2 |  |
| 15.1 | 33.1 | NC(=O)CO/N=C1\CCCC[C@@H]1NC(=O)c1cnc(OCC2CC2)c(-c2ccc(Cl)cc2)c1 [Example 5, N-{(S)-2-[(E)-Carbamoylmethoxyimino]-cyclohexyl}-5-(4-chloro-phenyl)-6-cyclopropylmethoxy-nicotinamide] | 2020 | 65.2 |  |
| 9 | 36 | O=C(NC/C(=N/OCC(F)(F)F)C1CC1)c1cnc(OCC(F)(F)F)c(-c2ccc(Cl)c(Cl)c2)c1 [Example 22, N-{2-Cyclopropyl-2-[(E/Z)-2,2,2-trifluoro-ethoxyimino]-ethyl}-5-(3,4-dichloro-phenyl)-6-(2,2,2-trifluoro-ethoxy)-nicotinamide] |  | 74 |  |
